Values joined by “and” are separate entries in the source; they are usually repeats but may differ in a detail not shown here. Equal entries are not always repeated.
Legend:
[1] = test system: Brassica juncea (Juncea canola or brown mustard, BRSJU); assay: Greenhouse postemergence application, visual injury after 20-22 d, BRSJU
Protocol: (§1) Seeds of the desired test plant species were planted in Sun Gro MetroMix® 306 planting mixture, which typically has a pH of 6.0 to 6.8 and an organic matter content of about 30 percent, in plastic pots with a surface area of 103.2 square centimeters (cm^2). […] The plants were grown for 7-36 days (d) in a greenhouse with an approximate 14-hour (h) photoperiod which was maintained at about 23° C. during the day and 22° C. during the night. Nutrients and water were added on a regular basis and supplemental lighting was provided with overhead metal halide 1000-Watt lamps as necessary. The plants were employed for testing when they reached the second or third true leaf stage.
(§2) An aliquot of formulated benzyl 4-amino-3-chloro-6-(4-chloro-2-fluoro-3-methoxyphenyl)-5-fluoropyridine-2-carboxylate (florpyrauxifen-benzyl; 300 grams active ingredient per liter (g ai/L) suspension concentrate (SC)) was placed in a 25 mL glass vial and diluted in a volume of 1.25% (v/v) aqueous Agri-dex crop oil concentrated to obtain a stock solution. […] The concentrated stock solutions were diluted with an aqueous mixture of 1.25% v/v of aqueous Agri-dex crop oil concentrate to provide the appropriate application rates. Compound requirements are based upon a 12 milliliter (mL) application volume at a rate of 187 liters per hectare (L/ha). Stock solutions of the formulated materials were prepared following the same procedure. Spray solutions of the compound mixtures were prepared by adding the stock solutions to the appropriate amount of dilution solution to form a 12 mL spray solution. Formulated compounds were applied to the plant material with an overhead Mandel track sprayer equipped with 8002E nozzles calibrated to deliver 187 L/ha over an application area of 0.503 square meters (m^2) at a spray height of 18 inches (43 centimeters (cm)) above average plant canopy. Control plants were sprayed in the same manner with the solvent blank.
(§3) The treated plants and control plants were placed in a greenhouse as described above and watered by sub-irrigation to prevent wash-off of the test compounds. After 20-22 d, the condition of the test plants as compared with that of the control plants was determined visually and scored on a scale of 0 to 100 percent where 0 corresponds to no injury and 100 corresponds to complete kill. Colby's equation was used to determine the herbicidal effects expected from the mixtures.
(§4) Benzyl 4-amino-3-chloro-6-(4-chloro-2-fluoro-3-methoxyphenyl)-5-fluoropyridine-2-carboxylate (florpyrauxifen-benzyl, 300 g ai/L SC) was combined in two-, three-, and four-way mixtures with one or more of the following: clopyralid-olamine (as Lontrel™ 35A Herbicidal Concentrate), quinclorac (as Facet 75DF), isoxadifen-ethyl (100 g/L SC), cloquintocet-mexyl (120 g/L EC) or mefenpyr-diethyl (as mefenpyr-diethyl 15WP). The mixtures were applied to kale/Chinese kale (Brassica alboglabra, BRSAG), Juncea canola or brown mustard (Brassica juncea, BRSJU), rutabaga (Brassica napus var. napobrassica, BRSNA), all varieties of canola and oilseed rape (Brassica napus, BRSNN), Nexera™ canola (Brassica napus, BRSNN-NEX), winter oilseed rape (Brassica napus, BRSNW), Roundup Ready® canola (Brassica napus, RR-BRSNN), and turnip or Polish canola (Brassica rapa, BRSRR), and the phytotoxicity of the compositions was measured.
(§5) Colby's equation was used to determine the herbicidal effects expected from the mixtures evaluated in the described trials (Colby, S. R. Calculation of the synergistic and antagonistic response of herbicide combinations. Weeds 1967, 15, 20-22.).
(§6) The following equation was used to calculate the expected activity of mixtures containing two active ingredients, A and B: Expected=A+B−(A×B/100) • A=observed efficacy of active ingredient A at the same concentration as used in the mixture; • B=observed efficacy of active ingredient B at the same concentration as used in the mixture.

[2] = test system: Brassica napus (all varieties of canola and oilseed rape, BRSNN); assay: Greenhouse postemergence application, visual injury after 20-22 d, BRSNN
Protocol: as §1, §2, §3, §4, §5, §6

[3] = test system: Brassica rapa (turnip or Polish canola, BRSRR); assay: Greenhouse postemergence application, visual injury after 20-22 d, BRSRR
Protocol: as §1, §2, §3, §4, §5, §6

[4] = isoxadifen-ethyl 5 g ai/ha alone
[5] = isoxadifen-ethyl 10 g ai/ha alone
[6] = isoxadifen-ethyl 20 g ai/ha alone
[7] = isoxadifen-ethyl 40 g ai/ha alone
[8] = postemergence application, greenhouse, application rate (g ai/ha) varies
[9] = florpyrauxifen-benzyl 2.5 g ai/ha alone
[10] = florpyrauxifen-benzyl 5 g ai/ha alone
[11] = florpyrauxifen-benzyl 10 g ai/ha alone
[12] = florpyrauxifen-benzyl alone 2.5 g ai/ha
[13] = florpyrauxifen-benzyl alone 5 g ai/ha
[14] = florpyrauxifen-benzyl alone 10 g ai/ha

## CCOC(=O)C1=NOC(c2ccccc2)(c2ccccc2)C1 [Isoxadifen-ethyl, ethyl 4,5-dihydro-5,5-diphenyl-1,2-oxazole-3-carboxyalte]
[1]; BRSJU, 5 g ai/ha
  % Visual Injury Obs: 0%
[1]; BRSJU, 10 g ai/ha
  % Visual Injury Obs: 0%
[1]; BRSJU, 20 g ai/ha
  % Visual Injury Obs: 0%
[1]; BRSJU, 40 g ai/ha
  % Visual Injury Obs: 0%
[1]; BRSJU, partner alone 5 g ai/ha
  Obs % visual injury: 0%
[1]; BRSJU, partner alone 10 g ai/ha
  Obs % visual injury: 0%
[1]; BRSJU, partner alone 20 g ai/ha
  Obs % visual injury: 0%
[1]; BRSJU, partner alone 40 g ai/ha
  Obs % visual injury: 0%
[1]; [4]
  % Visual Injury Obs: 0%
[1]; [5]
  % Visual Injury Obs: 0%
[1]; [6]
  % Visual Injury Obs: 0%
[1]; [7]
  % Visual Injury Obs: 0%
[1]; [8]
  % Visual Injury BRSJU Obs: 0%
[2]; BRSNN, 5 g ai/ha
  % Visual Injury Obs: 0%
[2]; BRSNN, 10 g ai/ha
  % Visual Injury Obs: 0%
[2]; BRSNN, 20 g ai/ha
  % Visual Injury Obs: 0%
[2]; BRSNN, 40 g ai/ha
  % Visual Injury Obs: 0%
[2]; BRSNN, partner alone 5 g ai/ha
  Obs % visual injury: 0%
[2]; BRSNN, partner alone 10 g ai/ha
  Obs % visual injury: 0%
[2]; BRSNN, partner alone 20 g ai/ha
  Obs % visual injury: 0%
[2]; BRSNN, partner alone 40 g ai/ha
  Obs % visual injury: 0%
[2]; [4]
  % Visual Injury Obs: 0%
[2]; [5]
  % Visual Injury Obs: 0%
[2]; [6]
  % Visual Injury Obs: 0%
[2]; [7]
  % Visual Injury Obs: 0%
[2]; [8]
  % Visual Injury BRSNN Obs: 0%
[3]; BRSRR, 5 g ai/ha
  % Visual Injury Obs: 0%
[3]; BRSRR, 10 g ai/ha
  % Visual Injury Obs: 0%
[3]; BRSRR, 20 g ai/ha
  % Visual Injury Obs: 0%
[3]; BRSRR, 40 g ai/ha
  % Visual Injury Obs: 0%
[3]; BRSRR, partner alone 5 g ai/ha
  Obs % visual injury: 0%
[3]; BRSRR, partner alone 10 g ai/ha
  Obs % visual injury: 0%
[3]; BRSRR, partner alone 20 g ai/ha
  Obs % visual injury: 0%
[3]; BRSRR, partner alone 40 g ai/ha
  Obs % visual injury: 0%
[3]; [4]
  % Visual Injury Obs: 0%
[3]; [5]
  % Visual Injury Obs: 0%
[3]; [6]
  % Visual Injury Obs: 0%
[3]; [7]
  % Visual Injury Obs: 0%
[3]; [8]
  % Visual Injury BRSRR Obs: 0%

## O=C(O)c1c(Cl)ccc2cc(Cl)cnc12 [Quinclorac, 3,7-dichloro-8-quinolinecarboxylic acid]
[1]; BRSJU, 50 g ai/ha
  % Visual Injury Obs: 0%
[1]; BRSJU, 100 g ai/ha
  % Visual Injury Obs: 0%
[1]; BRSJU, 200 g ai/ha
  % Visual Injury Obs: 0%
[1]; BRSJU, partner alone 50 g ai/ha
  Obs % visual injury: 0%
[1]; BRSJU, partner alone 100 g ai/ha
  Obs % visual injury: 0%
[1]; BRSJU, partner alone 200 g ai/ha
  Obs % visual injury: 0%
[1]; [8]
  % Visual Injury BRSJU Obs: 0%
[1]; quinclorac 50 g ai/ha alone
  % Visual Injury BRSJU Obs: 0%
[1]; quinclorac 100 g ai/ha alone
  % Visual Injury BRSJU Obs: 0%
[1]; quinclorac 200 g ai/ha alone
  % Visual Injury BRSJU Obs: 0%
[2]; BRSNN, 50 g ai/ha
  % Visual Injury Obs: 0%
[2]; BRSNN, 100 g ai/ha
  % Visual Injury Obs: 0%
[2]; BRSNN, 200 g ai/ha
  % Visual Injury Obs: 0%
[2]; BRSNN, partner alone 50 g ai/ha
  Obs % visual injury: 0%
[2]; BRSNN, partner alone 100 g ai/ha
  Obs % visual injury: 0%
[2]; BRSNN, partner alone 200 g ai/ha
  Obs % visual injury: 0%
[2]; [8]
  % Visual Injury BRSNN Obs: 0%
[2]; quinclorac 50 g ai/ha alone
  % Visual Injury BRSNN Obs: 0%
[2]; quinclorac 100 g ai/ha alone
  % Visual Injury BRSNN Obs: 0%
[2]; quinclorac 200 g ai/ha alone
  % Visual Injury BRSNN Obs: 0%
[3]; BRSRR, 50 g ai/ha
  % Visual Injury Obs: 0%
[3]; BRSRR, 100 g ai/ha
  % Visual Injury Obs: 0%
[3]; BRSRR, 200 g ai/ha
  % Visual Injury Obs: 0%
[3]; BRSRR, partner alone 50 g ai/ha
  Obs % visual injury: 0%
[3]; BRSRR, partner alone 100 g ai/ha
  Obs % visual injury: 0%
[3]; BRSRR, partner alone 200 g ai/ha
  Obs % visual injury: 0%
[3]; [8]
  % Visual Injury BRSRR Obs: 0%
[3]; quinclorac 50 g ai/ha alone
  % Visual Injury BRSRR Obs: 0%
[3]; quinclorac 100 g ai/ha alone
  % Visual Injury BRSRR Obs: 0%
[3]; quinclorac 200 g ai/ha alone
  % Visual Injury BRSRR Obs: 0%

## COc1c(Cl)ccc(-c2nc(C(=O)OCc3ccccc3)c(Cl)c(N)c2F)c1F [Florpyrauxifen-benzyl, benzyl 4-amino-3-chloro-6-(4-chloro-2-fluoro-3-methoxyphenyl)-5-fluoropyridine-2-carboxylate]
[1]; BRSJU, 2.5 g ai/ha
  % Visual Injury Obs: 7%
[1]; BRSJU, 5 g ai/ha
  % Visual Injury Obs: 12%
[1]; BRSJU, 10 g ai/ha
  % Visual Injury Obs: 18%
[1]; BRSJU, florpyrauxifen-benzyl alone 2.5 g ai/ha
  Obs % visual injury: 7%
[1]; BRSJU, florpyrauxifen-benzyl alone 5 g ai/ha
  Obs % visual injury: 12%
[1]; BRSJU, florpyrauxifen-benzyl alone 10 g ai/ha
  Obs % visual injury: 18%
[1]; [9]
  % Visual Injury BRSJU Obs: 7%
  % Visual Injury Obs: 7%
[1]; [10]
  % Visual Injury BRSJU Obs: 12%
  % Visual Injury Obs: 12%
[1]; [11]
  % Visual Injury BRSJU Obs: 18%
  % Visual Injury Obs: 18%
[1]; [12]
  Obs % visual injury BRSJU: 7%
[1]; [13]
  Obs % visual injury BRSJU: 12%
[1]; [14]
  Obs % visual injury BRSJU: 18%
[2]; BRSNN, 2.5 g ai/ha
  % Visual Injury Obs: 7%
[2]; BRSNN, 5 g ai/ha
  % Visual Injury Obs: 12%
[2]; BRSNN, 10 g ai/ha
  % Visual Injury Obs: 18%
[2]; BRSNN, florpyrauxifen-benzyl alone 2.5 g ai/ha
  Obs % visual injury: 7%
[2]; BRSNN, florpyrauxifen-benzyl alone 5 g ai/ha
  Obs % visual injury: 12%
[2]; BRSNN, florpyrauxifen-benzyl alone 10 g ai/ha
  Obs % visual injury: 18%
[2]; [9]
  % Visual Injury BRSNN Obs: 7%
  % Visual Injury Obs: 7%
[2]; [10]
  % Visual Injury BRSNN Obs: 12%
  % Visual Injury Obs: 12%
[2]; [11]
  % Visual Injury BRSNN Obs: 18%
  % Visual Injury Obs: 18%
[2]; [12]
  Obs % visual injury BRSNN: 7%
[2]; [13]
  Obs % visual injury BRSNN: 12%
[2]; [14]
  Obs % visual injury BRSNN: 18%
[3]; BRSRR, 2.5 g ai/ha
  % Visual Injury Obs: 6%
[3]; BRSRR, 5 g ai/ha
  % Visual Injury Obs: 9%
[3]; BRSRR, 10 g ai/ha
  % Visual Injury Obs: 14%
[3]; BRSRR, florpyrauxifen-benzyl alone 2.5 g ai/ha
  Obs % visual injury: 6%
[3]; BRSRR, florpyrauxifen-benzyl alone 5 g ai/ha
  Obs % visual injury: 9%
[3]; BRSRR, florpyrauxifen-benzyl alone 10 g ai/ha
  Obs % visual injury: 14%
[3]; [9]
  % Visual Injury BRSRR Obs: 6%
  % Visual Injury Obs: 6%
[3]; [10]
  % Visual Injury BRSRR Obs: 9%
  % Visual Injury Obs: 9%
[3]; [11]
  % Visual Injury BRSRR Obs: 14%
  % Visual Injury Obs: 14%
[3]; [12]
  Obs % visual injury BRSRR: 6%
[3]; [13]
  Obs % visual injury BRSRR: 9%
[3]; [14]
  Obs % visual injury BRSRR: 14%
[3]; [8]
  % Visual Injury BRSRR Obs: 6% and 9% and 14%
